Reference: paper PMC8820820, “Feasibility and safety of targeting mitochondria for cancer therapy – preclinical characterization of gamitrinib, a first-in-class, mitochondriaL-targeted small molecule Hsp90 inhibitor” (Cancer Biology & Therapy, 2022)

What was measured:
Kv4.3/KChIP2 = biological target: T1, Kv4.3/KChIP2 (Homo sapiens, UniProt Q9UK17); test: Ion channel screening; type: cell-based; details: 10 µM
T1 sequence (Q9UK17 1-655): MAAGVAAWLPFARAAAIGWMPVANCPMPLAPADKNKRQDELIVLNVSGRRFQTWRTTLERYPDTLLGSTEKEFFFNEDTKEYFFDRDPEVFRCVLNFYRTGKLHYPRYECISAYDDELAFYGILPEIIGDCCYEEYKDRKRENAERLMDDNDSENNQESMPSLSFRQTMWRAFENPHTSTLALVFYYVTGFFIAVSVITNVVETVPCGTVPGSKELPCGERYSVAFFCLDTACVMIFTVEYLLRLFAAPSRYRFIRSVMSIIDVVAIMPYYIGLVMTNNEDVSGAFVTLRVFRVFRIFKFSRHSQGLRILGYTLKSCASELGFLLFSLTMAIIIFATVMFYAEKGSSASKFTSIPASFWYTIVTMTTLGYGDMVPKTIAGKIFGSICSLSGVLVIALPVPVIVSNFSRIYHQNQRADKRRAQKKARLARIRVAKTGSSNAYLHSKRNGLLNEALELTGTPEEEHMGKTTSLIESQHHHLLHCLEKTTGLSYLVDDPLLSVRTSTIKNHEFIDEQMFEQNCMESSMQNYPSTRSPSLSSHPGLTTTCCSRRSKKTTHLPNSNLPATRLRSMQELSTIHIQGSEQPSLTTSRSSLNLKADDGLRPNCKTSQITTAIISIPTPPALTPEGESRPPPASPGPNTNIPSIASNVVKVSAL
T1 sequence (Q9NS61 1-270 partner): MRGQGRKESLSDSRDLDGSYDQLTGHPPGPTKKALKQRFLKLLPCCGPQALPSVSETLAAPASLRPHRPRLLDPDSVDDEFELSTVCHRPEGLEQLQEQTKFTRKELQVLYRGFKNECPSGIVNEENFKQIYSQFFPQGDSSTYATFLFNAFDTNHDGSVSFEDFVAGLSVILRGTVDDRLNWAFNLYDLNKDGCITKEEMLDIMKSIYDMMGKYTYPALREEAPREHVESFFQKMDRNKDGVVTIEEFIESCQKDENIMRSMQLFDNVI

beagle dogs = test: Toxicity in beagle dogs; type: in vivo
Experimental: Eighteen male and female (5–6 mo old) purebred beagle dogs (Cumberland, VA) were acclimated for 47 d (20°C to 26°C, relative humidity 30–70%, 10 or greater air changes/h, and a 12-h light/dark cycle) prior to study initiation. Animals were given water ad libitum and Certified Canine Diet #5007 (PMI Nutrition International Certified LabDiet®) for 4 to 5 h each day. At study initiation, animal body weights ranged from 8.6 to 11.5 kg for males and 6.0 to 9.4 kg for females. At least 1 week prior to initiation of dosing, animals were fasted overnight, anesthetized, and a catheter attached to a subcutaneous vascular access port was surgically implanted into a jugular vein. Animals were acclimated to infusion jackets prior to catheter implantation surgery. Animals were infused with sterile saline at a dose rate of 5 mL/h when the vascular access ports were accessed and when animals were connected to the infusion system (except when dosed with the test or vehicle control article). The patency of each catheter was checked as needed. Prednisolone tablets were administered orally at 2 mg/kg the night prior to dosing. Diphenhydramine (5 mg/kg; IM injection 0.1 mL/kg, 50 mg/mL) was administered prior to dosing and post the start of infusion (d 1 only). Male and female dogs received dose levels of Gamitrinib of 1.25, 3.33 and 6.25 mg/kg/dose formulated as indicated above during a 1 h infusion on d 1, 8, 11, 15, 18, 22, 25, 29, 32, and 36 at a volume of 2 mL/kg. The vehicle control was as above. […] Dosing was stopped, and 23 of 24 animals were administered additional diphenhydramine, 11 were administered Flunixin meglumine and buprenorphine, and 6 were administered acepromazine. Symptoms subsided in all animals after completion of these interventions. As a result of these observations, the polysorbate levels, which were increased from 0.025% (w/v) to 0.125% (w/v) to minimize precipitation, were returned to the original concentrations; 2 mg/kg prednisone was administered orally the night prior to dosing; and the diphenhydramine pretreatment dose was updated to 5 mg/kg 15 to 30 min prior to dosing. Detailed observations were conducted for each animal up to seven times during the predose phase, prior to dosing on d 1, 8, 15, 22, 29, and 36 of the dosing phase, and on d 1, 7, and 14 of the recovery phase. Blood samples (1 mL) were collected via the cephalic vein 5, 15, and 30 min and 1, 4, 8, and 24 h post the end of infusion on d 8 and 36 of the dosing phase. Formalin-fixed and paraffin-embedded tissue samples collected at the end of the study (d 39) were processed for histologic examination.

`COC1C=CC=C(C)C(=O)NC2=CC(=O)C(NCCCCCC[P+](c3ccccc3)(c3ccccc3)c3ccccc3)=C(CC(C)CC(OC)C(O)C(C)C=C(C)C1OC(N)=O)C2=O.F[P-](F)(F)(F)(F)F` (stereo not shown) [Gamitrinib] was tested, and the “inhibition of Kv4.3/KChIP2 currents” value (Kv4.3/KChIP2) was 6.8 ± 2.2%, the “Bone marrow and liver parameters” value (beagle dogs; dog, in vivo) was “unremarkable” and the organ weight (beagle dogs; dog, in vivo) was “No Gamitrinib-related changes in organ weight”. For the same compound, the kidney microscopic findings (beagle dogs; dog, in vivo, 6.25 mg/kg) was “slight to moderate kidney tubular degeneration/regeneration”, the “serum urea nitrogen and creatinine” value (beagle dogs; dog, in vivo, 6.25 mg/kg) was “trend of increased serum urea nitrogen and creatinine” and the NOAEL (beagle dogs; dogs, IV for 36 d) was 3.33 mg/kg/dose. The “highest non-severely toxic dose (HNSTD)” value (beagle dogs; dogs, IV for 36 d) was 6.25 mg/kg/dose.
